Measured values reported in ChEMBL document CHEMBL1148696, “Synthesis, characterization, cytotoxicity, antibacterial and antifungal evaluation of some new platinum (IV) and palladium (II) complexes of thiodiamines” (2007).
≈ marks a conversion by molar mass, not a printed value.

Columns and labels:
Aspergillus fumigatus [1] = assay: Antifungal activity against Aspergillus fumigatus after 48 hrs by micro-broth dilution method; assay type: functional
Aspergillus fumigatus [2] = assay: Antifungal activity against Aspergillus fumigatus after 10 hrs by spore germination inhibition assay; assay type: functional
Aspergillus flavus [3] = assay: Antifungal activity against Aspergillus flavus after 48 hrs by micro-broth dilution method; assay type: functional
Aspergillus flavus [4] = assay: Antifungal activity against Aspergillus flavus after 10 hrs by spore germination inhibition assay; assay type: functional
Aspergillus niger [5] = assay: Antifungal activity against Aspergillus niger after 48 hrs by micro-broth dilution method; assay type: functional
Aspergillus niger [6] = assay: Antifungal activity against Aspergillus niger after 10 hrs by spore germination inhibition assay; assay type: functional
Escherichia coli [7] = assay: Antibacterial activity against Escherichia coli after 18 hrs by disk diffusion method; assay type: functional, organism-based
Escherichia coli [8] = assay: Antibacterial activity against Escherichia coli by micro dilution method; assay type: functional, organism-based

## C[C@@H]1[C@H](O)[C@@H](C)/C=C/C=C/C=C/C=C/C=C/C=C/C=C/[C@H](O[C@@H]2O[C@H](C)[C@@H](O)[C@H](N)[C@@H]2O)C[C@@H]2O[C@](O)(C[C@@H](O)C[C@@H](O)[C@H](O)CC[C@@H](O)C[C@@H](O)CC(=O)O[C@H]1C)C[C@H](O)[C@H]2C(=O)O [AMPHOTERICIN B]
Aspergillus fumigatus [1]
  MIC: 5 µg/mL (≈ 5.41 µM)
Aspergillus fumigatus [2]
  MIC: 5 µg/mL (≈ 5.41 µM)
Aspergillus flavus [3]
  MIC: 5 µg/mL (≈ 5.41 µM)
Aspergillus flavus [4]
  MIC: 5 µg/mL (≈ 5.41 µM)
Aspergillus niger [5]
  MIC: 5 µg/mL (≈ 5.41 µM)
Aspergillus niger [6]
  MIC: 5 µg/mL (≈ 5.41 µM)

## GENTAMICIN
Escherichia coli [7]
  inhibition zone (IZ): 16 mm
Escherichia coli [8]
  MIC: 1 µg
